Series [1] relates to lethal effect of 125 mgm/kg of pentylenetetrazole. In words: Pentetrazole antagonism test (anticonvulsive activity). The format is in vivo, Mouse; albino mice (NMRI). Particulars: po, 1 h; mouse; p.o.; 125 mgm/kg pentylenetetrazole i.p. one hour after test compound; values graphically determined. As to the method:
(§1) 1. Pentetrazole antagonisim [M. I. Gluckmann, Curr. Ther. Res. 7, 721 (1965)]. The median effective dose (ED50) of the test compound is determined which cancels the lethal effect of 125 mgm/kg of pentylenetetrazole in 50% of the test animals; the pentylenetetrazole is administered intraperitoneally one hour after administration of the test compound.
(§2) Albino mice (NMRI) having a body weight of 20 to 25 gm or albino rats (FW-49) having a body weight of 140 to 200 gm were used as the test animals, and the test compounds were administered perorally as a suspension in olive oil by means of an esophageal sound.

Series [2] is described as follows: Toxicity, median lethal dose (Litchfield and Wilcoxon). The arrangement: species or system Mouse; albino mice (NMRI). The settings on record: in vivo, po, mouse; for selectivity ratio: p.o., LD50 over pentylenetetrazole antagonism ED50, read-out: Therap. Index LD50:ED50. As to the method:
5. Toxicity [Litchfield and Wilcoxon, J. Pharmacol. Exp. Therap. 96, 99(1949)]. Determination of median lethal dose (LD50).
as §2

For series [3], the system named is warm-blooded animals, such as mice and rats. In words: Standard pharmacodynamic test methods (pentetrazole antagonism, electroshock, conflicting situation, fighting test). The format is in vivo. Particulars: in words. As to the method: The above-indicated pharmacodynamic properties of the compounds of this invention were ascertained by means of various standard test methods, namely the following:
as §1
2. Electroshock [J. E. P. Tomann et al, J. Neuro-Physiol. 9, 231 (1946)].
3. Conflicting Situation (Inhibition of Passive Avoidance Test) [J. Geller, Arch. Int. Pharmacodyn. 149,243 (1964)].
4. Fighting Test (Suppression of isolation-induced aggressiveness in mice) [Wirth et al; Arch. Int. Pharmcodyn. 115, 1-31 (1958)].
as §2

Molecules are shown by their SMILES.

In turn, `Cc1nnc2n1-c1sc(Cl)cc1C(c1ccccc1Br)=NC2` [G, 8-chloro-6-(o-bromophenyl)-1-methyl-4H-s-triazolo[3,4c]thieno[2,3e]1,4-diazepine, reference compound] gave an ED50 in series [1] of 0.7 mg/kg. Moreover, in series [2], the LD50 was determined as 2200 mg/kg and the selectivity ratio came to 3140.

Regarding `Cc1nnc2n1-c1sc(Br)cc1C(c1ccccc1Cl)=NC2` [A, 8-bromo-6-(o-chlorophenyl)-1-methyl-4H-s-triazolo [3,4c]thieno[2,3e]1,4-diazepine], in series [1], it took a dose of 0.07 mg/kg to reach the 50% effect level (ED50). In series [2], the LD50 was over 3500 mg/kg and the selectivity ratio is over 50000. Also, in series [3], the “effectiveness among the compounds of formula I” value is reported as “particularly effective”.

In the case of `Cc1nnc2n1-c1sc(Cl)cc1C(c1ccccc1)=NC2` [H, 8-chloro-6-phenyl-1-methyl-4H-s-triazolo[3,4c]thieno[2,3e]1,4-diazepine, reference compound], the ED50 in series [1] was determined as 3 mg/kg.

In the case of `Cc1nnc2n1-c1sc(Br)cc1C(c1ccccc1F)=NC2` [B, 8-bromo-6-(o-fluorophenyl)-1-methyl-4H-s-triazolo[3,4c]thieno[2,3e]1,4-diazepine], in series [1], the ED50 is 0.15 mg/kg. In series [2], the LD50 is over 3300 mg/kg and the selectivity ratio was over 22000.

As for `Cc1nnc2n1-c1sc(Br)cc1C(c1ccccc1Br)=NC2` [C, 8-bromo-6-(o-bromophenyl)-1-methyl-4H-s-triazolo[3,4c]thieno[2,33]1,4-diazepine], the ED50 in series [1] worked out at 0.12 mg/kg. In series [2], the LD50 was over 3500 mg/kg and the selectivity ratio is over 29200. The “effectiveness among the compounds of formula I” value in series [3] is listed as “particularly effective”.

Turning to `CCc1cc2c(s1)-n1c(C)nnc1CN=C2c1ccccc1Cl` [E, 8-ethyl-6-(o-chlorophenyl)-1-methyl-4H-s-triazolo[3,4c]thieno[2,3e]-1,4-diazepine, reference compound], it took a dose of 0.7 mg/kg to reach the 50% effect level in series [1] (ED50). In addition, in series [2], the LD50 was found to be 3070 mg/kg and the selectivity ratio is 4390.

In series [1], `Cc1nnc2n1-c1sc(Br)cc1C(c1ccccc1)=NC2` [D, 8-bromo-6-phenyl-1-methyl-4H-s-triazolo[3,4]thieno[2,3e]1,4-diazepine] yielded a 50% effective dose (ED50) of 0.8 mg/kg.

Consider `Cc1nnc2n1-c1sc(Cl)cc1C(c1ccccc1Cl)=NC2` [F, 8-chloro-6-(o-chlorophenyl)-1-methyl-4H-s-triazolo[3,4c]thieno[2,3e]1,4-diazepine, reference compound], for which it took a dose of 1 mg/kg to reach the 50% effect level in series [1] (ED50). In series [2], the LD50 was determined as 2300 mg/kg and the selectivity ratio came to 2300.

Values taken from patent publication US4094984A, “6-Phenyl-8-bromo-4H-s-triazolo-[3,4C]-thieno-[2,3E]-1,4-diazepines and salts thereof” (Boehringer Ingelheim GmbH, priority 1974, dated 1978).
